Measurements from patent US12540131B2 (Merck Sharp & Dohme LLC, priority 2019, dated 2026).

What follows are compounds tested against GST tagged truncated human mutant G2019S LRRK2 (Homo sapiens (Human), UniProt Q5S007, G2019S) (assay: LRRK2 Km ATP LanthaScreen Assay). Details: G2019S LRRK2, 134 μM ATP (Km ATP), mean values.
Format: biochemical
How it was run: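 Enzyme (GST-tagged, truncated) was preincubated with compound for 15 min at RT in 50 mM Tris pH 8.5, 10 mM MgCl2, 0.01% Brij-35, 1 mM EGTA, 2 mM DTT and 0.05 mM orthovanadate. Fluorescein-LRRKtide and 134 μM ATP (Km) were then added for 90 min. EDTA and Tb-anti-pERM antibody stopped the reaction; the TR-FRET 520/495 ratio gave 4-parameter IC50s, reported as mean pIC50.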

Chain of GST tagged truncated human mutant G2019S LRRK2 (Q5S007 970-2527 G2019S): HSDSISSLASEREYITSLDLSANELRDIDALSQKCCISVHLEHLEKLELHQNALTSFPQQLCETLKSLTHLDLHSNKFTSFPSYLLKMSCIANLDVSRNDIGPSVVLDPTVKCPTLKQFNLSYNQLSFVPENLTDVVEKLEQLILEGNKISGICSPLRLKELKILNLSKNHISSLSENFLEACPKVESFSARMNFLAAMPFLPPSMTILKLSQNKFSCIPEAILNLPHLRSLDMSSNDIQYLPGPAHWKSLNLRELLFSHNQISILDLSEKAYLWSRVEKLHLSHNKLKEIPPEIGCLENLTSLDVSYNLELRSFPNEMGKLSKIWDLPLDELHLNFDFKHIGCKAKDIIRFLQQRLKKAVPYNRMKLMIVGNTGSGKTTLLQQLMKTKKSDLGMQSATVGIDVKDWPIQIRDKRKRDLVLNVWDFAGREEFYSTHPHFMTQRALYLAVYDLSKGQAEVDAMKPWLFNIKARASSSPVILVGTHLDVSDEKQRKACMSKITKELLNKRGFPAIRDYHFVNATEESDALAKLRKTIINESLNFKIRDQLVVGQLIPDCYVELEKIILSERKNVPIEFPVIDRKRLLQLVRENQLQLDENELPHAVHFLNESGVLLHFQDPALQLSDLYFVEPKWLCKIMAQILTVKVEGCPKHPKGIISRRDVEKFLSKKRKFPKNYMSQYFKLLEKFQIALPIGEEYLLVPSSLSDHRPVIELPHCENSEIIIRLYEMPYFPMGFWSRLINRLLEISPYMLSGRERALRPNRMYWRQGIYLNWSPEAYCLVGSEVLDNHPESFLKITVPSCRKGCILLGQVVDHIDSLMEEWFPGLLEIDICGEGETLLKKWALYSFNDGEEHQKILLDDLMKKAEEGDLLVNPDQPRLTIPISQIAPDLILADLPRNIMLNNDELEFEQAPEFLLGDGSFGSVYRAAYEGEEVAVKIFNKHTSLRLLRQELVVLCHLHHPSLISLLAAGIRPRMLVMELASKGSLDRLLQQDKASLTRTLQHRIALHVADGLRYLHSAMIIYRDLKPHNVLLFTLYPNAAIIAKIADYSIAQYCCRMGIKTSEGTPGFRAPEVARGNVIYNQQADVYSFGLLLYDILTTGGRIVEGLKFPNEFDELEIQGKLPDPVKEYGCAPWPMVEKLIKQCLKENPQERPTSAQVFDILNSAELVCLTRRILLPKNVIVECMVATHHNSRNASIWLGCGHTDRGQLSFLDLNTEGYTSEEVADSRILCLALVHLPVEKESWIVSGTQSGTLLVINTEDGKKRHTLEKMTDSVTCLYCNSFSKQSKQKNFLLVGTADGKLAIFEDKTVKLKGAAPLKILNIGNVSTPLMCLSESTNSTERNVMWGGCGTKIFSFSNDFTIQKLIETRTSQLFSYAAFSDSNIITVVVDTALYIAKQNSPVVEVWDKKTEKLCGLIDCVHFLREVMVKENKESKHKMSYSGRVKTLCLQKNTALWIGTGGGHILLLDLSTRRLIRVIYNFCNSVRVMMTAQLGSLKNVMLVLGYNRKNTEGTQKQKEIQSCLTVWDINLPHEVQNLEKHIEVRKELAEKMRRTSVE

Row | Structure (SMILES) | LRRK2 pIC50
1 | N#Cc1cc2cnc(Nc3cnn(C4CC4)c3Cl)nc2cc1[C@H]1CCN(C2COC2)C[C@@H]1F (single isomer, unassigned) [Ex-6.2, (3R,4R) or (3S,4S) 2-((5-chloro-1-cyclopropyl-1H-pyrazol-4-yl)amino)-7-(3-fluoro-1-(oxetan-3-yl)piperidin-4-yl)quinazoline-6-carbonitrile] | >9.20
2 | N#Cc1cc2cnc(Nc3cnn(C4CC4(F)F)c3Cl)nc2cc1[C@@H]1CCN(C2COC2)C[C@H]1F (single isomer, unassigned) [Ex-6.4, (R)(3S,4S) or (S)(3S,4S) or (R)(3R,4R) or (S)(3R,4R) 2-((5-chloro-1-(2,2-difluorocyclopropyl)-1H-pyrazol-4-yl)amino)-7-(3-fluoro-1-(oxetan-3-yl)piperidin-4-yl)quinazoline-6-carbonitrile] | 9.18
3 | N#Cc1cc2cnc(Nc3cnn(C4CC4(F)F)c3Cl)nc2cc1[C@@H]1CCN(C2COC2)C[C@H]1F (single isomer, unassigned) [Ex-6.5, (R)(3S,4S) or (S)(3S,4S) or (R)(3R,4R) or (S)(3R,4R) 2-((5-chloro-1-(2,2-difluorocyclopropyl)-1H-pyrazol-4-yl)amino)-7-(3-fluoro-1-(oxetan-3-yl)piperidin-4-yl)quinazoline-6-carbonitrile] | >9.20
4 | N#Cc1cc2cnc(Nc3cnn(C4CC4(F)F)c3Cl)nc2cc1[C@H]1CCN(C2COC2)C[C@@H]1F (single isomer, unassigned) [Ex-6.6, (R)(3S,4S) or (S)(3S,4S) or (R)(3R,4R) or (S)(3R,4R) 2-((5-chloro-1-(2,2-difluorocyclopropyl)-1H-pyrazol-4-yl)amino)-7-(3-fluoro-1-(oxetan-3-yl)piperidin-4-yl)quinazoline-6-carbonitrile] | 8.94
5 | N#Cc1cc2cnc(Nc3cnn(C4CC4(F)F)c3Cl)nc2cc1[C@H]1CCN(C2COC2)C[C@@H]1F (single isomer, unassigned) [Ex-6.7, (R)(3S,4S) or (S)(3S,4S) or (R)(3R,4R) or (S)(3R,4R) 2-((5-chloro-1-(2,2-difluorocyclopropyl)-1H-pyrazol-4-yl)amino)-7-(3-fluoro-1-(oxetan-3-yl)piperidin-4-yl)quinazoline-6-carbonitrile] | 9.01
6 | Cc1c(Nc2ncc3cc(Cl)c(C4CCN(C5COCC5F)CC4)cc3n2)cnn1C1CC1 (single isomer, unassigned) [Ex-7.4, (3S,4S) or (3R,4R) or (3S,4R) or (3R,4S) 6-chloro-N-(1-cyclopropyl-5-methyl-1H-pyrazol-4-yl)-7-[1-(4-fluorooxolan-3-yl)piperidin-4-yl]quinazolin-2-amine] | >9.20
7 | CO[C@H]1COC[C@H]1N1CCC(c2cc3nc(Nc4cnn(C5CC5)c4C)ncc3cc2Cl)CC1 (single isomer, unassigned) [Ex-7.5, (3S,4S) or (3R,4R) 6-chloro-N-(1-cyclopropyl-5-methyl-1H-pyrazol-4-yl)-7-[1-(4-methoxyoxolan-3-yl)piperidin-4-yl]quinazolin-2-amine] | >9.20

Same assay, conditions: G2019S LRRK2, 134 μM ATP (Km ATP), mean values; read-out: LRRK2 pIC50 (converted)

Row | Structure (SMILES) | IC50
8 | N#Cc1cc2cnc(Nc3cnn(C4CC4)c3Cl)nc2cc1[C@H]1CCN(C2COC2)C[C@@H]1F (single isomer, unassigned) [Ex-6.1, (3R,4R) or (3S,4S) 2-((5-chloro-1-cyclopropyl-1H-pyrazol-4-yl)amino)-7-(3-fluoro-1-(oxetan-3-yl)piperidin-4-yl)quinazoline-6-carbonitrile] | 1.91 nM
9 | CO[C@@H]1COC[C@]1(C)N1CCC(c2cc3nc(Nc4cnn(C5CC5)c4C)ncc3cc2Cl)CC1 (single isomer, unassigned) [Ex-7.3, (3S,4S) or (3R,4R) 6-chloro-N-(1-cyclopropyl-5-methyl-1H-pyrazol-4-yl)-7-(1-(4-methoxy-3-methyltetrahydrofuran-3-yl)piperidin-4-yl)quinazolin-2-amine] | 11.7 nM
